Measured values reported in publication PMC7412550 (Viruses, 2020).

Legend:
HIV-1 NL4.3 wt = conditions: for SI (selectivity index): ratio between the CC50 and the EC50; for EC50: read-out: HIV-1 wt MT EC50, HIV-1 NL4.3 wt, MT4 cells, MTT, 5 days post infection, mean and SD of three experiments
in vitro = conditions: human
HIV-1 IN = tested on: HIV-1 IN; design: method as in ref 30 = [30]; conditions: enzymatic assay; cited from earlier work
VSV/HIV-1GFP = format: cell-based
[1] = target: HIV-1 RT-associated RDDP activity (wt RT) (Human immunodeficiency virus type 1 group M subtype B, UniProt P04585); assay: HIV-1 RNA-dependent DNA polymerase (RDDP) activity; format: biochemical
[2] = target: HIV-1 RT-associated RNase H (wt RT) (Human immunodeficiency virus type 1 group M subtype B, UniProt P04585); assay: HIV-1 DNA polymerase-independent RNase H activity, wt RT
HIV-1 RT RNase H = conditions: Table S2; biologic data previously reported; cited from earlier work
R557A RT RNase H [3] = target: T1, R557A RT RNase H (Human immunodeficiency virus type 1 group M subtype B, UniProt P04585, R1144A); assay: HIV-1 DNA polymerase-independent RNase H activity, R557A RT; conditions: RNase H function; p-value 0.9682
R448A RT RNase H [4] = target: T2, R448A RT RNase H (Human immunodeficiency virus type 1 group M subtype B, UniProt P04585, R1035A); design: method as in ref 26,27 = [26]; conditions: RNase H function; cited from earlier work
MT4 cells = conditions: read-out: MT4 CC50; non-infected MT4 cells, MTT
Q475A RT RNase H = Q475A RT RNase H (Human immunodeficiency virus type 1 group M subtype B, UniProt P04585, Q1062A); assay: HIV-1 DNA polymerase-independent RNase H activity, Q475A RT; conditions: RNase H function; p-value = 0.0008
R557A RT RNase H [5] = target: T1, R557A RT RNase H; design: method as in ref 26,27 = [26]; conditions: RNase H function; cited from earlier work
R448A RT RNase H [6] = target: T2, R448A RT RNase H; assay: HIV-1 DNA polymerase-independent RNase H activity, R448A RT; conditions: RNase H function; p-value 0.5545

In the case of `Cc1cn([C@H]2C[C@H](N=[N+]=[N-])[C@@H](CO)O2)c(=O)[nH]c1=O` [AZT, azidothymidine], the “SI (selectivity index)” value (HIV-1 NL4.3 wt) is reported as >500 and the CC50 (in vitro) is reported as > 3.7 µM.
For `O=C(N/N=C/c1ccccc1O)c1cc(O)c(O)c(O)c1` [Compound 13, N’-(2-hydroxy-benzylidene)-3,4,5-trihydroxybenzoylhydrazone], the “activity against HIV-1 IN” value (HIV-1 IN) is given as “inactivity”, the “SI (selectivity index)” value (HIV-1 NL4.3 wt) is given as 6.1 and the EC50 (HIV-1 NL4.3 wt) is given as 10.1 ± 4.7 µM. The CC50 (in vitro) was 61.5 ± 2.2 µM, the “time after infection at which activity is lost (time-of-addition)” value (VSV/HIV-1GFP) was 6 h and the “inhibitory effect on RDDP activity at 25 μM” value ([1]; 25 μM) was “no inhibitory effect”. For the same compound, the “fold less potent against RT polymerase activity than RNase H function” value ([1]; RDDP vs RNase H) was > 20 fold, the IC50 ([1]; wt RT, inhibitor and substrate added before the enzyme (competition)) was 81 µM and the IC50 ([2]; RNase H IC50 against wt enzyme (site-directed mutagenesis study, Figure 4), determined in parallel with mutants) was 6.9 µM. For the same compound, the IC50 ([2]; RT-associated RNase H activity IC50 (comparative inhibition, Figure 2B), inhibitor and substrate added before the enzyme (competition)) was 3.6 µM and the IC50 (HIV-1 RT RNase H) was 2320 ± 750 nM.
In the case of `O=C(N/N=C/c1cc(O)c(O)cc1O)c1cc(O)c(O)c(O)c1` [Compound 21], the “activity against HIV-1 IN” value (HIV-1 IN) is given as “inhibited”, the “SI (selectivity index)” value (HIV-1 NL4.3 wt) is given as 6.4 and the CC50 (in vitro) is given as 31.8 ± 0.4 µM. For the same compound, the time-of-addition behaviour (VSV/HIV-1GFP) was “retained its potency over time” and the IC50 (HIV-1 RT RNase H) was 620 ± 100 nM.
For `O=C1Nc2ccc(Cl)cc2[C@@](C#CC2CC2)(C(F)(F)F)O1` [EFV, efavirenz], the “SI (selectivity index)” value (HIV-1 NL4.3 wt) was >6.25 and the CC50 (in vitro) was > 0.31 µM.
In the case of `Cc1ccnc2c1NC(=O)c1cccnc1N2C1CC1` [NVP, nevirapine], the “SI (selectivity index)” value (HIV-1 NL4.3 wt) is reported as >5.5 and the CC50 (in vitro) is reported as > 3.7 µM.
With `Cc1nnc(C(=O)NC(C)(C)c2nc(C(=O)NCc3ccc(F)cc3)c(O)c(=O)n2C)o1` [RAL, raltegravir] the CC50 (in vitro) was > 2.25 µM and the time-of-addition behaviour (VSV/HIV-1GFP) was “retained its potency over time”.
In the case of `CCOC(=O)C(=O)CC(=O)/C=C/c1cccn1Cc1ccccc1Cl` [RDS1759], the “potency of inhibition on R557A RT compared to wt RT” value (R557A RT RNase H [3]) is given as “not significantly affected”, the “activity against R448A HIV-1 RT” value (R448A RT RNase H [4]) is given as “fully active” and the CC50 (MT4 cells) is given as 39 ± 4.4 µM. The “SI (selectivity index)” value (HIV-1 NL4.3 wt) was 4.7, the EC50 (HIV-1 NL4.3 wt) was 8.2 ± 0.9 µM and the “potency of inhibition on Q475A RT compared to wt RT” value (Q475A RT RNase H) was “significantly lost its potency”. For the same compound, the “activity against R557A HIV-1 RT” value (R557A RT RNase H [5]) was “fully active” and the “potency of inhibition on R448A RT compared to wt RT” value (R448A RT RNase H [6]) was “not significantly affected”.
For `CC(C)c1ccc(O)c(=O)c(O)c1` [beta-thujaplicinol], the “activity against R448A HIV-1 RT” value (R448A RT RNase H [4]) is listed as “fully active” and the “activity against R557A HIV-1 RT” value (R557A RT RNase H [5]) is listed as “fully active”.
